Results published in US4725683A, “Fluorophenoxyphenoxypropionates and derivatives thereof” (The Dow Chemical Company, priority 1985, dated 1988).

Tests used:
Test in all cases: Preemergent activity
Format in all cases: in vivo
[1] = tested on: Barnyard Grass; settings: Echinochloa crus-galli, pre-emergence, read-out: Preemergence Control; for pest or weed control at 140 g/ha: 0.14 kgs/hectare; for pest or weed control at 1120 g/ha: 1.12 kgs/hectare; for pest or weed control at 560 g/ha: 0.56 kgs/hectare; for pest or weed control at 280 g/ha: 0.28 kgs/hectare; for pest or weed control at 70 g/ha: 0.07 kgs/hectare
Method: (§1) In a representative operation, 2-[4-(2-fluoro-4-trifluoromethylphenoxy)phenoxy]propionic acid methyl ester, to be utilized in a series of tests, is dissolved in acetone to one half of the final volume (twice the final concentration) to be used and the acetone solution in each case is admixed with an equal volume of water containing 0.1 percent by weight of Tween-20 surface active material (Tween-20 is a trademark of Atlas Chemical Company). The composition, generally in the nature of an emulsion, was employed to treat separate respective seed beds of sandy loam soil of good nutrient content wherein each seed bed contained separate groups of good viable seeds, each group being of one of a known plant species. The various beds were positioned side by side and exposed to substantially identical conditions of temperature and light. Each bed was maintained so as to prevent any interaction with the test compound in different seed beds. Each seed bed was treated with the composition as a spray employing conventional spraying equipment to deposit a predetermined amount of the compound uniformly throughout the surface of the bed. Another seed bed was treated only with the acetone-Tween-20 water mixture with no chemical added to serve as a control.

[2] = tested on: Yellow Foxtail; settings: Setaria, pre-emergence, read-out: Preemergence Control; for pest or weed control at 140 g/ha: 0.14 kgs/hectare; for pest or weed control at 1120 g/ha: 1.12 kgs/hectare; for pest or weed control at 560 g/ha: 0.56 kgs/hectare; for pest or weed control at 280 g/ha: 0.28 kgs/hectare; for pest or weed control at 70 g/ha: 0.07 kgs/hectare
Method: as §1

[3] = tested on: Johnson Grass; settings: Sorghum halepense, pre-emergence, read-out: Preemergence Control; for pest or weed control at 140 g/ha: 0.14 kgs/hectare; for pest or weed control at 1120 g/ha: 1.12 kgs/hectare; for pest or weed control at 560 g/ha: 0.56 kgs/hectare; for pest or weed control at 280 g/ha: 0.28 kgs/hectare; for pest or weed control at 70 g/ha: 0.07 kgs/hectare
Method: as §1

[4] = tested on: Wheat; settings: Triticum aestivum, pre-emergence, read-out: Preemergence Control; for plant injury at 70 g/ha: 0.07 kgs/hectare; for plant injury at 140 g/ha: 0.14 kgs/hectare; for plant injury at 280 g/ha: 0.28 kgs/hectare; for plant injury at 560 g/ha: 0.56 kgs/hectare; for plant injury at 1120 g/ha: 1.12 kgs/hectare
Method: as §1

[5] = tested on: Wild Oats; settings: Avena fatua, pre-emergence, read-out: Preemergence Control; for pest or weed control at 140 g/ha: 0.14 kgs/hectare; for pest or weed control at 1120 g/ha: 1.12 kgs/hectare; for pest or weed control at 560 g/ha: 0.56 kgs/hectare; for pest or weed control at 280 g/ha: 0.28 kgs/hectare; for pest or weed control at 70 g/ha: 0.07 kgs/hectare
Method: as §1

| SMILES | pest or weed control at 140 g/ha [1] [%] | pest or weed control at 1120 g/ha [1] [%] | pest or weed control at 140 g/ha [2] [%] | pest or weed control at 1120 g/ha [2] [%] | pest or weed control at 140 g/ha [3] [%] | pest or weed control at 1120 g/ha [3] [%] | plant injury at 70 g/ha [4] [%] | plant injury at 140 g/ha [4] [%] | plant injury at 280 g/ha [4] [%] | plant injury at 560 g/ha [4] [%] | plant injury at 1120 g/ha [4] [%] | pest or weed control at 140 g/ha [5] [%] | pest or weed control at 1120 g/ha [5] [%] | pest or weed control at 560 g/ha [1] [%] | pest or weed control at 560 g/ha [2] [%] | pest or weed control at 560 g/ha [3] [%] | pest or weed control at 560 g/ha [5] [%] | pest or weed control at 280 g/ha [1] [%] | pest or weed control at 280 g/ha [2] [%] | pest or weed control at 280 g/ha [3] [%] | other results |
| --- | --- | --- | --- | --- | --- | --- | --- | --- | --- | --- | --- | --- | --- | --- | --- | --- | --- | --- | --- | --- | --- |
| CC(Oc1ccc(Oc2ccc(Br)cc2F)cc1)C(=O)Nc1ccc(C(F)(F)F)cc1 (stereo not shown) | 0 | 50 | 0 | 0 | 0 | 20 | 0 | 0 | 0 | 0 | 0 | 0 | 60 | – | – | – | – | – | – | – | – |
| Cc1cc(Cl)ccc1NC(=O)C(C)Oc1ccc(Oc2ccc(Br)cc2F)cc1 (stereo not shown) | 0 | 100 | 0 | 100 | 0 | 60 | 0 | 0 | 0 | 0 | 40 | 0 | 90 | 0 | 70 | 0 | 0 | – | – | – | – |
| COc1cccc(NC(=O)C(C)Oc2ccc(Oc3ccc(Br)cc3F)cc2)c1 (stereo not shown) | 0 | 100 | 0 | 100 | 0 | 100 | 0 | 0 | 0 | 0 | 0 | 0 | 30 | 100 | 80 | 30 | 40 | 100 | 20 | 30 | pest or weed control at 280 g/ha [5]: 0% |
| CC(Oc1ccc(Oc2ccc(Br)cc2F)cc1)C(=O)OC1CCCC1 (stereo not shown) | 50 | 100 | 0 | 100 | 0 | 100 | 0 | 0 | 0 | 0 | 80 | 0 | 100 | 100 | 100 | 100 | 100 | 100 | 100 | 40 | pest or weed control at 280 g/ha [5]: 30% |
| CC(Oc1ccc(Oc2ccc(Br)cc2F)cc1)C(=O)N(C)c1ccccc1 (stereo not shown) | 0 | 0 | 0 | 0 | 0 | 0 | 0 | 0 | 0 | 0 | 0 | 0 | 0 | – | – | – | – | – | – | – | – |
| C=CCNC(=O)C(C)Oc1ccc(Oc2ccc(Br)cc2F)cc1 (stereo not shown) | 0 | 100 | 0 | 100 | 0 | 100 | 0 | 0 | 0 | 0 | 0 | 80 | 90 | 100 | 90 | 90 | 80 | 100 | 30 | 50 | pest or weed control at 280 g/ha [5]: 90% |
| CC(Oc1ccc(Oc2ccc(Br)cc2F)cc1)C(N)=O (stereo not shown) [NH2, 2-(4-(4-Bromo-2-fluorophenoxy)phenoxy)propionamide] | 100 | 100 | 90 | 100 | 0 | 100 | 0 | 0 | 30 | 90 | 40 | 0 | 95 | 100 | 100 | 90 | 50 | 100 | 95 | 30 | pest or weed control at 70 g/ha [1]: 20%; pest or weed control at 70 g/ha [2]: 0%; pest or weed control at 70 g/ha [3]: 0%; pest or weed control at 70 g/ha [5]: 0%; pest or weed control at 280 g/ha [5]: 50% |
| CC(Oc1ccc(Oc2ccc(Br)cc2F)cc1)C(=O)OCCN(C)C (stereo not shown) [O(CH2)2 N(CH3)2] | 100 | 100 | 0 | 100 | 0 | 100 | 0 | 0 | 0 | 0 | 0 | 30 | 99 | 100 | 100 | 95 | 90 | 100 | 0 | 60 | pest or weed control at 70 g/ha [1]: 70%; pest or weed control at 70 g/ha [2]: 0%; pest or weed control at 70 g/ha [3]: 0%; pest or weed control at 70 g/ha [5]: 0%; pest or weed control at 280 g/ha [5]: 30% |
| CCOCCOC(=O)C(C)Oc1ccc(Oc2ccc(Br)cc2F)cc1 (stereo not shown) [O(CH2)2 OC2 H5] | 90 | 100 | 0 | 100 | 0 | 60 | 0 | 0 | 0 | 0 | 20 | 30 | 100 | 100 | 100 | 60 | 100 | 95 | 80 | 0 | pest or weed control at 70 g/ha [1]: 0%; pest or weed control at 70 g/ha [2]: 0%; pest or weed control at 70 g/ha [3]: 0%; pest or weed control at 70 g/ha [5]: 0%; pest or weed control at 280 g/ha [5]: 30% |
